This note sets out measurements from patent US9670204B2, “Compounds and pharmaceutical compositions thereof for the treatment of inflammatory disorders” (Galapagos NV, priority 2013, dated 2017).

The target of assay [1] is T1, hENPP2 (UniProtKB/SwissProt Q13822) (Homo sapiens (Human), UniProt Q13822). The assay is described as follows: hENPP2 biochemical assay, LPC as substrate. To be noted: LPC (palmitoyl 16:0) as substrate. The method, boiled down:
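Human ENPP2 in 50 mM Tris-HCl pH 8.5, 500 mM NaCl, 5 mM KCl, 10 mM CaCl2, 0.1% fatty-acid-free BSA, reacted 30 min at 37 °C with LPC 16:0 (150 µM solution added 1:1). Released choline measured via choline oxidase/peroxidase/TOOS/4-aminoantipyrine quinoneimine dye at 555 nm; IC50 reported.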

For assay [2], the target named is T1, hENPP2. The assay is described as follows: fluorescent hENPP2 biochemical assay, FS-3 as substrate. Conditions: read-out: FS3-IC50. The procedure:
Compound IC50 values are determined in a fluorescent hENPP2 (UniProtKB/SwissProt Sequence ref Q13822) biochemical assay using the fluorogenic autotaxin substrate FS-3 as substrate. FS-3 is a doubly labeled analog of LPC wherein the fluorophore is quenched through intramolecular energy transfer. Without hENPP2, the emission of the probe is quenched. If the substrate is hydrolyzed by hENPP2, the emission of the probe is not quenched anymore resulting in a fluorescence increase.
The enzyme is diluted in 50 mM Tris-HCl pH 8.0, 250 mM NaCl, 5 mM KCl, 1 mM MgCl2, 1 mM CaCl2, 0.1% fatty acid free BSA in a total volume of 20 μL. Enzyme mixture is added to compounds and the resulting mixture is incubated for 30 min at room temperature under shaking. The reaction is started by the addition of 20 μL of 0.75 μM FS-3 diluted in the same buffer as described above and the mixture is incubated at 30° C. for 30 min. Fluorescence is read on the Envision (Excitation 485 nm, emission 520 nm).

SMILES strings stand for the structures. pIC50: −log10 of the molar value.

For the compound `CCc1nc2ccc(C3=CCOCC3)cn2c1N(C)c1nc(-c2ccc(F)cc2)cs1` [Compound 220, N-(6-(3,6-dihydro-2H-pyran-4-yl)-2-ethylimidazo[1,2-a]pyridin-3-yl)-4-(4-fluorophenyl)-N-methylthiazol-2-amine], the negative-log IC50 (pIC50) against hENPP2 [1] was < 6.00; on hENPP2 [2], 7.00 to 11.00.

With `CCc1nc2ccc(C3CCN(CC(=O)N4CC[C@H](C#N)C4)CC3)cn2c1N(C)c1nc(-c2ccc(F)cc2)cs1` [Compound 116, (S)-1-(2-(4-(2-ethyl-3-((4-(4-fluorophenyl)thiazol-2-yl)(methyl)amino)imidazol[1,2-a]pyridin-6-yl)piperidin-1-yl)acetoyl)pyrrolidine-3-carbonitrile], the pIC50 is 6.30 to 7.00 against hENPP2 [1] and 7.00 to 11.00 on hENPP2 [2].

Regarding `CCc1nc2ccc(C3=CCN(C(=O)Nc4cccs4)CC3)cn2c1N(C)c1nc(-c2ccc(F)cc2)cs1` [Compound 208, 4-(2-ethyl-3-((4-(4-fluorophenyl)thiazol-2-yl)(methyl)amino)imidazo[1,2-a]pyridin-6-yl)-N-(thiophen-2-yl)-5,6-dihydropyridine-1(2H)-carboxamide], the pIC50 on hENPP2 [1] was < 6.00; at hENPP2 [2], 7.00 to 11.00.

With `CCc1nc2ccc(C3=CCN(S(=O)(=O)CCCCl)CC3)cn2c1N(C)c1nc(-c2ccc(F)cc2)cs1` [Compound 233, N-(6-(1-(3-chloropropylsulfonyl)-1,2,3,6-tetrahydropyridin-4-yl)-2-ethylimidazo[1,2-a]pyridin-3-yl)-4-(4-fluorophenyl)-N-methylthiazol-2-amine], on hENPP2 [1], the LPC-IC50 entry is recorded as “not active”. Further, the pIC50 on hENPP2 [2] was 7.00 to 11.00.

Regarding `CCc1nc2ccc(N3CCN(CC(=O)N(C)C)CC3)cn2c1N(C)c1nc(-c2ccc(F)cc2)c(C(=O)C(F)(F)F)s1` [Compound 158, 2-(4-(2-ethyl-3-((4-(4-fluorophenyl)-5-(2,2,2-trifluoroacetoyl)thiazol-2-yl)(methyl)amino)imidazo[1,2-a]pyridin-6-yl)piperazin-1-yl)-N,N-dimethylacetamide], the negative-log IC50 (pIC50) at hENPP2 [1] is 6.30 to 7.00; on hENPP2 [2] it was 7.00 to 11.00.

Regarding `CCc1nc2ccc(N3CCN(S(=O)(=O)CC(N)=O)CC3)cn2c1N(C)c1nc(-c2ccc(F)cc2)cs1` [Compound 61, 2-(4-(2-ethyl-3-((4-(4-fluorophenyl)thiazol-2-yl)(methyl)amino)imidazo[1,2-a]pyridin-6-yl)piperazin-1-ylsulfonyl)acetamide], the pIC50 on hENPP2 [1] was < 6.00; at hENPP2 [2], 7.00 to 11.00.

`CCc1nc2ccc(C3CCN(S(=O)(=O)CCCN4CCCC4)CC3)cn2c1N(C)c1nc(-c2ccc(F)cc2)cs1` [Compound 89, {2-Ethyl-6-[1-(3-pyrrolidin-1-yl-propane-1-sulfonyl)-piperidin-4-yl]-imidazo[1,2-a]pyridin-3-yl}-[4-(4-fluoro-phenyl)-thiazol-2-yl]-methyl-amine]: the pIC50 is 6.30 to 7.00 against hENPP2 [1] and 7.00 to 11.00 at hENPP2 [2].

With `CCc1nc2ccc(N3CCC(O)CC3)cn2c1N(C)c1nc(-c2ccc(F)cc2)cs1` [Compound 211, 1-(2-ethyl-3-((4-(4-fluorophenyl)thiazol-2-yl)(methyl)amino)imidazo[1,2-a]pyridin-6-yl)piperidin-4-ol], the pIC50 against hENPP2 [1] is < 6.00; at hENPP2 [2], 7.00 to 11.00.

For `CCc1nc2ccc(C3CCN(C(=O)OC(C)(C)C)CC3O)cn2c1N(C)c1nc(-c2ccc(F)cc2)cs1` (stereo not shown) [Compound 78, tert-butyl 4-(2-ethyl-3-((4-(4-fluorophenyl)thiazol-2-yl)(methyl)amino)imidazo[1,2-a]pyridin-6-yl)-3-hydroxypiperidine-1-carboxylate], the figures for the pIC50 on hENPP2 [1] and on hENPP2 [2] were < 6.00 and 7.00 to 11.00, respectively.

In the case of `CCc1nc2ccc(C3=CCOCC3)cn2c1N(C)c1nc(-c2ccc(Cl)cc2)cs1` [Compound 221, 4-(4-chlorophenyl)-N-(6-(3,6-dihydro-2H-pyran-4-yl)-2-ethylimidazo[1,2-a]pyridin-3-yl)-N-methylthiazol-2-amine], the pIC50 against hENPP2 [1] was < 6.00; on hENPP2 [2] it was 7.00 to 11.00.

Regarding `CCc1nc2ccc(C3CCN(S(C)(=O)=O)CC3)cn2c1N(C)c1nc(-c2ccc(OC)cc2)cs1` [Compound 82, N-(2-ethyl-6-(1-(methylsulfonyl)piperidin-4-yl)imidazo [1,2-a]pyridin-3-yl)-4-(4-methoxyphenyl)-N-methylthiazol-2-amine], the pIC50 was < 6.00 against hENPP2 [1] and 7.00 to 11.00 at hENPP2 [2].

`CCc1nc2ccc(C3=CCS(=O)(=O)CC3)cn2c1N(C)c1nc(-c2ccc(Cl)cc2)cs1` [Compound 76, 4-(2-ethyl-3-((4-(4-chlorophenyl)thiazol-2-yl)(methyl)amino)imidazo[1,2-a]pyridin-6-yl)-3,6-dihydro-2H-thiopyran 1,1-dioxide]: the pIC50 was < 6.00 on hENPP2 [1] and 7.00 to 11.00 on hENPP2 [2].

Turning to `CCc1nc2ccc(N3CCN(CC(=O)N4CC[C@H](O)C4)CC3)cn2c1N(C)c1nc(-c2ccc(F)cc2)cs1` [Compound 25, (S)-2-(4-(2-ethyl-3-((4-(4-fluorophenyl)thiazol-2-yl)(methyl)amino)imidazo[1,2-a]pyridin-6-yl)piperazin-1-yl)-1-(3-hydroxypyrrolidin-1-yl)ethanone], the values for the pIC50 on hENPP2 [1] and at hENPP2 [2] were 6.30 to 7.00 and 7.00 to 11.00, respectively.

With `CCc1nc2ccc(C3CCN(S(N)(=O)=O)CC3)cn2c1N(C)c1nc(-c2ccc(F)cc2)cs1` [Compound 92, 4-(2-ethyl-3-((4-(4-fluorophenyl)thiazol-2-yl)(methyl)amino)imidazo[1,2-a]pyridin-6-yl)piperidine-1-sulfonamide], the values for the pIC50 on hENPP2 [1] and at hENPP2 [2] were < 6.00 and 7.00 to 11.00, respectively.

`CCOC(=O)CN1CCN(c2ccc3nc(CC)c(N(C)c4nc(-c5ccc(F)cc5)cs4)n3c2)C(=O)C1` [Compound 64, ethyl 2-(4-(2-ethyl-3-((4-(4-fluorophenyl)thiazol-2-yl)(methyl)amino)imidazo[1,2-a]pyridin-6-yl)-3-oxopiperazin-1-yl)acetate]: the pIC50 against hENPP2 [1] was < 6.00; at hENPP2 [2], 7.00 to 11.00.

Regarding `CCc1nc2ccc(N3CCN(S(=O)(=O)CC(=O)OC)CC3)cn2c1N(C)c1nc(-c2ccc(F)cc2)cs1` [Compound 59, methyl 2-(4-(2-ethyl-3-((4-(4-fluorophenyl)thiazol-2-yl)(methyl)amino)imidazo[1,2-a]pyridin-6-yl)piperazin-1-ylsulfonyl)acetate], the pIC50 was < 6.00 against hENPP2 [1] and 7.00 to 11.00 at hENPP2 [2].

For the compound `CCc1nc2ccc(N3CCN(CC(=O)O)CC3)cn2c1N(C)c1nc(-c2ccc(F)cc2)cs1` [Compound 42, 2-(4-(2-ethyl-3-((4-(4-fluorophenyl)thiazol-2-yl)(methyl)amino)imidazo[1,2-a]pyridin-6-yl)piperazin-1-yl)acetic acid], the pIC50 against hENPP2 [1] was < 6.00; at hENPP2 [2], 7.00 to 11.00.

Take `CCc1nc2ccc(C3CCN(CC(=O)N4CC(O)C4)CC3)cn2c1N(C)c1nc(-c2ccc(F)cc2C#N)c(C)s1` [Compound 172, 2-(2-((2-ethyl-6-(1-(2-(3-hydroxyazetidin-1-yl)-2-oxoethyl)piperidin-4-yl)imidazo[1,2-a]pyridin-3-yl)(methyl)amino)-5-methylthiazol-4-yl)-5-fluorobenzonitrile]: the negative logarithm of the IC50 (pIC50) on hENPP2 [1] was 6.30 to 7.00; on hENPP2 [2], 7.00 to 11.00.

`CCc1nc2ccc(C3CCN(S(C)(=O)=O)CC3O)cn2c1N(C)c1nc(-c2ccc(F)cc2)cs1` (stereo not shown) [Compound 79, 4-(2-ethyl-3-((4-(4-fluorophenyl)thiazol-2-yl)(methyl)amino)imidazo[1,2-a]pyridin-6-yl)-1-(methylsulfonyl) piperidin-3-ol]: the values for the negative logarithm of the IC50 (pIC50) on hENPP2 [1] and at hENPP2 [2] were < 6.00 and 7.00 to 11.00, respectively.

`CCc1nc2ccc(N3CCN(C(=O)OC(C)(C)C)CC3)cn2c1N(C)c1nc(-c2ccc(Cl)cc2)ns1` [Compound 225, tert-butyl 4-(3-((3-(4-chlorophenyl)-1,2,4-thiadiazol-5-yl)(methyl)amino)-2-ethylimidazo[1,2-a]pyridin-6-yl) piperazine-1-carboxylate]: the pIC50 at hENPP2 [1] was < 6.00; on hENPP2 [2] it was 7.00 to 11.00.

As for `CCc1nc2ccc(C3=CCN(S(=O)(=O)CCl)CC3)cn2c1N(C)c1nc(-c2ccc(F)cc2)cs1` [Compound 67, N-(6-(1-(chloromethylsulfonyl)-1,2,3,6-tetrahydropyridin-4-yl)-2-ethylimidazo[1,2-a]pyridin-3-yl)-4-(4-fluorophenyl)-N-methylthiazol-2-amine], the pIC50 on hENPP2 [1] is < 6.00; at hENPP2 [2] it was 7.00 to 11.00.

`CCC(=O)N1CCN(c2ccc3nc(CC)c(N(C)c4nc(-c5ccc(F)cc5)cs4)n3c2)CC1` [Compound 51, 1-(4-(2-ethyl-3-((4-(4-fluorophenyl)thiazol-2-yl)(methyl)amino)imidazo[1,2-a]pyridin-6-yl)piperazin-1-yl)propan-1-one]: the results for the pIC50 on hENPP2 [1] and at hENPP2 [2] were < 6.00 and 7.00 to 11.00, respectively.

For `CCc1nc2ccc(C3CCN(C(=O)CN4CC(O)C4)CC3)cn2c1N(C)c1nc(-c2ccc(F)cc2)cs1` [Compound 128, 1-(4-(2-ethyl-3-((4-(4-fluorophenyl)thiazol-2-yl)(methyl)amino)imidazo[1,2-a]pyridin-6-yl)piperidin-1-yl)-2-(3-hydroxyazetidin-1-yl)ethanone], the negative logarithm of the IC50 (pIC50) is 6.30 to 7.00 against hENPP2 [1] and 7.00 to 11.00 at hENPP2 [2].
